Assay results published in paper PMC5719431, “Structural insights into the potency of SK channel positive modulators” (Scientific Reports, 2017).

Key:
[1] = biological target: T1, CaM/CaMBD complex (CaM and SK2 channel fragment R395–Q486) (Rattus norvegicus, UniProt P0DP29+P70604); assay: X-ray crystal structure (soaked crystals); format: binding; conditions: Ca2+-CaM, site at interface of CaMBD and CaM N-lobe
T1 construct: gene Kcnn2; both expressed in E. coli Rosetta-2

[2] = biological target: T2, SK2-a channel (SK2, KCa2.2) co-expressed with CaM (Rattus norvegicus, UniProt P0DP29+P70604); assay: inside-out patch clamp, potentiation of SK2 current; format: cell-based
T2 construct: gene Kcnn2; full-length SK2-a co-transfected with CaM and GFP in TsA201 cells; tetrameric channel
T2 sequence (P70604 whole entry, one chain of several): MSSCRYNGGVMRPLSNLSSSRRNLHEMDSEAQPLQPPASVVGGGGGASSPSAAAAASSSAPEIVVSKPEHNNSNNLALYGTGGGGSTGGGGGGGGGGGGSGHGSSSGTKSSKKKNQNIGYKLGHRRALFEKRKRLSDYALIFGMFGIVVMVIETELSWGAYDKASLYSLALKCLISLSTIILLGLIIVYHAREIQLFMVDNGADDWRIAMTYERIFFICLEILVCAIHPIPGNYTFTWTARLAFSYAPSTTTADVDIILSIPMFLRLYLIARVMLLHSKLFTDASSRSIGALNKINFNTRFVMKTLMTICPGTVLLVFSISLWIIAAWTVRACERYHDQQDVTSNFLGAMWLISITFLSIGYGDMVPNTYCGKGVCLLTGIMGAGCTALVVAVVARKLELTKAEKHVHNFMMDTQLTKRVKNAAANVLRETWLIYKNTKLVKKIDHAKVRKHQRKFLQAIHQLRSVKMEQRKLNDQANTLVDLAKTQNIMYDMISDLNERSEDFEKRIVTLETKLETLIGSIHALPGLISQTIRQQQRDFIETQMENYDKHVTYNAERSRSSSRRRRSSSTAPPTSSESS

T1 sequence (P70604 396-487, one chain of several): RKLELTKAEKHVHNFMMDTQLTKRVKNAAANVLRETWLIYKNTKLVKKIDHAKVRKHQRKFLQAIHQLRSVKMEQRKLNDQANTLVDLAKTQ

Structure (SMILES): O=C1Nc2c(F)cccc2C1=NO [SKS-14, 7-fluoro-3-(hydroxyimino)indolin-2-one]
- X-ray crystal structure (soaked crystals) ([1]; soaked about 5 months): crystal structures of SKS-11 and SKS-14 in complex with their binding pocket
- EC50 [2]: 33.2 ± 4.8 µM

Structure (SMILES): O=C1Nc2c(ccc(Cl)c2Cl)C1=NO [NS309]
- EC50 [2]: 0.552 ± 0.083 µM

Structure (SMILES): Cc1cc2c(cc1Br)NC(=O)C2=NO [SKS-11, 6-bromo-5-methyl-1H-indole-2,3-dione-3-oxime]
- X-ray crystal structure (soaked crystals) ([1]; soaked about 1 month): crystal structures of SKS-11 and SKS-14 in complex with their binding pocket
- EC50 [2]: 3.87 ± 0.88 µM
